Measurements reported in patent publication US7208502B2, “Methods of treating conditions associated with an Edg-3 receptor” (Maniv Energy Capital, priority 2002, dated 2007).

What was measured:
[1] = system: Muscarinic non-selective, Central; assay: Radioligand binding assay, 3H Quinuclidinyl benzilate; set-up: species or system Wistar rat; conditions: 10 μM; significance criteria ≧50% of max stimulation or inhibition
Protocol: (§1) In order to test the selectivity of compounds, various enzyme assays as well as radioligand binding assays were performed using numerous non-Edg receptor targets as listed below.
(§2) A radioligand binding assay was performed using adrenergic α1 according to the method of Greengrass and Bremner 1979, Eur. J. Pharmacol. 55:323–326. A radioligand binding assay was performed using adrenergic α2 according to the method of Boyajian and Leslie, 1987, J. Pharmacol. Exp. Ther. 241:1092–1098. A radioligand binding assay was performed using adrenergic β according to the method of Feve et al., 1994, Proc. Natl. Acad. Sci. USA 91:5677–5681. A radioligand binding assay was performed using angiotensin AT2 according to the method of Whitebread et al., 1991, Biochem. Biophys. Res. Comm. 181:1365–1371. A radioligand binding assay was performed using calcium channel Type L, dihydropyridine according to the method of Ehlert et al., 1982, Life Sci. 30:2191–2202. A radioligand binding assay was performed using dopamine D2L according to the method of Bunzo et al., 1988, Nature 336:783–787. A radioligand binding assay was performed using endothelin ETA according to the method of Mihara et al., 1994, J. Phrmacol. Exp Ther. 268:1122–1127. A radioligand binding assay was performed using histamine H1 Central according to the method of Hill et al., 1978, J. Neurochem. 31:997–1004. […]
(§3) Quantitation Method: Radioligand Binding […]

[2] = system: Serotonin 5-HT1, non-selective; assay: Radioligand binding assay, 3H Serotonin (5-HT) Trifluoroacetate; set-up: species or system Wistar rat; conditions: 10 μM; significance criteria ≧50% of max stimulation or inhibition
Protocol: as §1, §2, §3

Edg-4 = molecular target: T1, Edg-4 (Homo sapiens, UniProt Q9HBW0); assay: Intracellular calcium assay, LPA-stimulated, HTC cells expressing Edg-4; type: cell-based; conditions: concentrations as high as 20 µM
T1 construct: expressed in transfected cells; host or cells: HTC rat hepatoma cells
T1 sequence (Q9HBW0 whole entry): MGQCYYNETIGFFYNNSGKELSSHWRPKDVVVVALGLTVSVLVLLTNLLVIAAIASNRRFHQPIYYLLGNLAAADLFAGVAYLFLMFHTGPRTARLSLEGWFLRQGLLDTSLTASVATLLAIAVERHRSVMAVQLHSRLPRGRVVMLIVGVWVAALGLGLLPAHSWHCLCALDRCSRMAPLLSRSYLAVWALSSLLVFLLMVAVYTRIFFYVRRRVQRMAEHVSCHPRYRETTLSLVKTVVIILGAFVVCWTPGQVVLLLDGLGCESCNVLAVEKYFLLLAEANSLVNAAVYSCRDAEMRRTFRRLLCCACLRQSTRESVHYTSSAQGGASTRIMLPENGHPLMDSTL

[3] = system: Calcium Channel Type L, Dihydropyridine; assay: Radioligand binding assay, 3H Nitrendipine; set-up: species or system Wistar Rat; conditions: 10 μM; significance criteria ≧50% of max stimulation or inhibition
Protocol: as §1, §2, §3

Edg-6 = molecular target: T2, Edg-6 (Homo sapiens, UniProt O95977); assay: Intracellular calcium assay, S1P-stimulated, HTC cells expressing Edg-6; type: cell-based; conditions: concentrations as high as 20 µM
T2 construct: expressed in transfected cells; host or cells: HTC rat hepatoma cells
T2 sequence (O95977 1-384): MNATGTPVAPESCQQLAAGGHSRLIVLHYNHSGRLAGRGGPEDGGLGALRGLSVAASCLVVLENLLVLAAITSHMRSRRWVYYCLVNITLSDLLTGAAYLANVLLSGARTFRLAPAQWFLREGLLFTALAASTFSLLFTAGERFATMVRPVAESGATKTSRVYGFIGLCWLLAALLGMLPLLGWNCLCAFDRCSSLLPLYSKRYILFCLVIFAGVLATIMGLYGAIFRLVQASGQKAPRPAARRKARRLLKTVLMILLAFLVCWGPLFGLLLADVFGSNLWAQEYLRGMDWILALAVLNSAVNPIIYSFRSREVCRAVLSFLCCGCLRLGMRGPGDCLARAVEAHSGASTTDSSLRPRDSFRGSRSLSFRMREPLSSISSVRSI

Edg-7 = molecular target: T3, Edg-7 (Homo sapiens, UniProt Q9UBY5); assay: Intracellular calcium assay, LPA-stimulated, HTC cells expressing Edg-7; type: cell-based; conditions: concentrations as high as 20 µM
T3 construct: expressed in transfected cells; host or cells: HTC rat hepatoma cells
T3 sequence (Q9UBY5 1-353): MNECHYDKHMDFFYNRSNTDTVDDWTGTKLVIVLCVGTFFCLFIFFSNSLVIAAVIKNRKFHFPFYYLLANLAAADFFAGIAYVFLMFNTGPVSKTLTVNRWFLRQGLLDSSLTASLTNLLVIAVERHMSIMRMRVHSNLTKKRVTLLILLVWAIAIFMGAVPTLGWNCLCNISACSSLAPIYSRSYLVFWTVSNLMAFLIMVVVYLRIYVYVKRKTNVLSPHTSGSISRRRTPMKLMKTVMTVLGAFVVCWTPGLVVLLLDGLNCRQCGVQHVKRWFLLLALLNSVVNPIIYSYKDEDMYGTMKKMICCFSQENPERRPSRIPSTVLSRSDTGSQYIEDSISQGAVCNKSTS

[4] = system: Adrenergic α1, non-selective; assay: Radioligand binding assay, 3H Prazosin; set-up: species or system Wistar Rat; conditions: 10 μM; significance criteria ≧50% of max stimulation or inhibition
Protocol: as §1, §2, §3

With `Cc1c(-c2ccccc2)nc2ccccc2c1C(=O)NCc1ccc(F)cc1` [Compound 101, 3-methyl-2-phenyl-quinoline-4-carboxylic acid 4-fluoro-benzylamide] as the molecule, how does the “activity in standard binding assay, Muscarinic non-selective, Central” value [1] read?
The value was “no activity”.

What about the “activity in standard binding assay, Serotonin 5-HT1, non-selective” value [2] of the same molecule?
Its value is “no activity”.

What about the “inhibition of LPA-stimulated calcium increases, Edg-4” value (Edg-4) of the same molecule?
Its value is “did not inhibit”.

And the “activity in standard binding assay, Calcium Channel Type L, Dihydropyridine” value [3]?
Its value is “no activity”.

What about the “inhibition of S1P-stimulated calcium increases, Edg-6” value (Edg-6) of the same molecule?
Its value is “did not inhibit”.

And the “inhibition of LPA-stimulated calcium increases, Edg-7” value (Edg-7)?
The value was “did not inhibit”.

And the “activity in standard binding assay, Adrenergic α1” value [4]?
Its value is “no activity”.
